Test [1] concerns split-Src controlled by the ABI/PYL CID system. Kind of test: anti-phosphotyrosine western blot of split-Src controlled by the ABI/PYL CID system. Format: cell-based. The note with it: for phosphorylation / kinase activity of ABI/PYL split-Src with CID alone: abscisic acid CID alone. As to the method: It was hypothesized that there might be off-target kinase inhibition by ABT-263, which is not present in the other ligands tested. To interrogate this potential off-target kinase inhibition, an orthogonal split-Src construct design was employed with ABI and PYL domains and the CID, abscisic acid. The split-Src was tested as fragments without CID, fragments with CID, and fragments with CID plus ABT-263.
On the technique in general: In western blotting, separated proteins are transferred to a membrane and probed.

Test [2] has as its system split-Src controlled by split Bcl-xL. Briefly: anti-phosphotyrosine western blot of split-Src controlled by split Bcl-xL in HEK293T cells. The conditions noted are these: for global tyrosine phosphorylation: N-Bcl-xL 1-112 / C-Bcl-XL WT 113-209 split-Src, 10 µM ligand vs DMSO. It is filed as cell-based, human. On the procedure:
The most ligand-responsive fragments, N-Bcl-xL 1-112 and C-Bcl-XL WT 113-209, were cloned into existing full-length split-Src constructs. N-Bcl-xL was attached via a 25-residue linker to the N-terminus of N-Src. C-Bcl-XL WT was attached via a 25-residue linker to C-Src Y530F (FIG. 4A). Each split-kinase system was tested in HEK293T cells via transient transfection and treated with either DMSO or 10 µM of Bcl-xL ligands A-1155463, ABT-263, or ABT-737. […] More importantly, this novel CID system can likely be used in combination with the three existing CID systems to generate additional layers of control in cells for controlling pathways with externally added small molecules. For example, a split kinase and a corresponding split phosphatase may be used in conjunction with a split target protein (e.g., as described herein) to examine any given phosphorylation pathway in a cell. In some embodiments, the split target protein may be either upstream or downstream of a phosphorylation cascade (e.g., the split kinase). The aforementioned system would allow precise signaling studies to be undertaken by titration of two or more ligands (e.g., small molecules; e.g., one ligand for each split protein in the system).

For test [3], the system named is Bcl-xL WT and Bcl-xL R139A. Briefly: split-luciferase assay, Bcl-xL 209 R139A side-by-side with wild-type parent. It is filed as cell-based, human. The note with it: α3-α4 split site, 50 nM ligand, 5 ng of each FLuc construct (FIG. 3). On the procedure:
Low passage (≤25) cells were seeded onto T-75 (Fisher) flasks at 1E6 cells per mL and grown for 24 hours in complete media. Transient transfections were performed using PolyJet (SignaGen). 96-well culture plates were coated with 50 μL/well of 50 μg/mL solution of poly-D-lysine (MilliPore) and incubated at 4C overnight. Cells were transfected for ˜16 h, then were trypsinized and quantified. Cells were plated onto coated 96-well plates at 1E4 cells/well in DMEM supplemented with 0.5% v/v FBS. Treatment was dissolved in DMSO and added to a final DMSO concentration of 0.05% by volume. Cells were grown in treatment media for 24 h before being lysed with an in-house detergent-based buffer. Cell lysis was clarified via centrifugation, and 50 μL of clarified lysate was plated per well on a white U-bottom luminescence plate. 80 μL of L-GLO was added to each well, and the plate was incubated at room temperature for 25-40 minutes before luminescence was read on a Centro XS3 LB960 (Berthold Technologies) microplate luminometer. Separately, clarified lysate was quantified using a Micro-BCA kit (Pierce), and luminescence was normalized to RLU per microgram of total protein using Microsoft Excel. All data presented were plotted using Kaleidagraph (Synergy) 3.5.

Test [4] addresses Bcl-xL (Homo sapiens, UniProt Q07817). The note with it: in the literature; cited from earlier work.
Test [5] concerns the target T1, Bcl-xL 209 R139A (Homo sapiens, UniProt Q07817, R139A).
T1 construct: expressed in transfected cells; host or cells: HEK293T
Kind of test: split-luciferase complementation assay of split Bcl-xL 209 R139A in HEK293T cells. Format: cell-based. The conditions noted are these: split-luciferase signal. The source says:
(§1) To design split Bcl-xL, a suitable readout was required to measure successful ligand-dependent reassembly. A split-luciferase complementation assay was used, which was originally identified by rapamycin-induced complementation of FKBP and FRB. The split protein constructs were designed such that split-firefly luciferase-dependent luminescence would only be generated upon dimerization of N-Bcl-xL and C-Bcl-xL fragments […] (FIG. 2A). The split-protein constructs were created for each of the Bcl-xL split sites (FIG. 2B) and tested by transient transfection into HEK293T cells with the addition of either a Bcl-xL ligand or DMSO.
Low passage (≤25) cells were seeded onto T-75 (Fisher) flasks at 1E6 cells per mL and grown for 24 hours in complete media. […] Cells were transfected for ˜16 h, then were trypsinized and quantified. […] Cell lysis was clarified via centrifugation, and 50 μL of clarified lysate was plated per well on a white U-bottom luminescence plate. 80 μL of L-GLO was added to each well, and the plate was incubated at room temperature for 25-40 minutes before luminescence was read on a Centro XS3 LB960 (Berthold Technologies) microplate luminometer. Separately, clarified lysate was quantified using a Micro-BCA kit (Pierce), and luminescence was normalized to RLU per microgram of total protein using Microsoft Excel. […]

The target in test [6] is T2, C-Bcl-XL WT 113-209 split-firefly-luciferase fusion (human, UniProt Q07817 113-209).
T2 construct: not shown: split firefly luciferase half (NFluc or CFluc) with any linker
Briefly: split-luciferase complementation in HEK293T cells, reassembly induced by ABT-263.
Description: Fold change is indicated as a measure of small-molecule dependence of the luminescence.
as §1

“Also recorded” adds a separate entry of the source.

T1 sequence (Q07817 113-209 R139A, one chain of several): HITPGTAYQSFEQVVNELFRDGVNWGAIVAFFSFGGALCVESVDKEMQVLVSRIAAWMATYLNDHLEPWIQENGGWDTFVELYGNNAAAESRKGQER
T2 sequence (Q07817 113-209): as the sequence (Q07817 113-209 R139A, one chain of several) above, with A27R counted along it
Bcl-xL, sequence (Q07817 whole entry): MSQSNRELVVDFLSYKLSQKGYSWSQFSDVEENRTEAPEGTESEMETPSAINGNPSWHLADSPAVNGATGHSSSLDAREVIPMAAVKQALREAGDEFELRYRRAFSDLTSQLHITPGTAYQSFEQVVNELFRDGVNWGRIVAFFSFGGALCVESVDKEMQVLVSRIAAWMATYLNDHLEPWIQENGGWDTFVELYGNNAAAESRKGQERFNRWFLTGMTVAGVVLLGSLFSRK

Turning to `CC1(C)CCC(c2ccc(Cl)cc2)=C(CN2CCN(c3ccc(C(=O)NS(=O)(=O)c4ccc(N[C@H](CCN5CCOCC5)CSc5ccccc5)c(S(=O)(=O)C(F)(F)F)c4)cc3)CC2)C1` [ABT-263], in test [1] (fragments with abscisic acid CID plus ABT-263), the “phosphorylation / kinase turn-on of ABI/PYL split-Src on addition of ABT-263 with abscisic acid” value is given as “lesser amount of kinase turn-on; also recorded: phosphorylation is slightly decreased”. Also, the global tyrosine phosphorylation entry in test [2] is given as “significant increases in global tyrosine phosphorylation”. The “intensity of induced phosphorylation compared to A-1155463 and ABT-737” value in test [2] (split-Src controlled by split Bcl-xL) is reported as “lower intensity of induced phosphorylation”. Moreover, in test [3], the “split-luciferase signal, difference between Bcl-xL WT and R139A in ligand-induced reassembly” value was “respond similarly; also recorded: no significant difference”.

On to `CC1=CC(=O)CC(C)(C)[C@@]1(O)/C=C/C(C)=C\C(=O)O` [abscisic acid], for which the entries for the “phosphorylation / kinase activity of ABI/PYL split-Src with CID alone” value in test [1] and in test [1] (listed as ABA) were “strong phosphorylation” and “turns the kinase activity on”, respectively.

For the molecule `CN(C)CC[C@H](CSc1ccccc1)Nc1ccc(S(=O)(=O)NC(=O)c2ccc(N3CCN(Cc4ccccc4-c4ccc(Cl)cc4)CC3)cc2)cc1[N+](=O)[O-]` [ABT-737], the global tyrosine phosphorylation result in test [2] is given as “significant increases in global tyrosine phosphorylation”.

For `CN(C)CC#Cc1ccc(OCCCc2sc(N3CCc4cccc(C(=O)Nc5nc6ccccc6s5)c4C3)nc2C(=O)O)c(F)c1` [A-1155463], the global tyrosine phosphorylation result in test [2] is given as “significant increases in global tyrosine phosphorylation”. In addition, the “split-luciferase signal, difference between Bcl-xL WT and R139A in ligand-induced reassembly” value in test [3] is recorded as “preferential binding for wild-type C-Bcl-XL 113-209 over the R139A mutant”. The “binding affinity to Bcl-xL” value in test [4] is on record as “sub-nanomolar”. Further, the “ligand-induced reassembly (induced dimerization) of Bcl-xL 209 R139A” value in test [5] is “did not induce significant reassembly”.

B1: N-Bcl-xL 1-112 split-firefly-luciferase fusion (α3-α4 split site) (other)
chain: MEDAKNIKKGPAPFYPLEDGTAGEQLHKAMKRYALVPGTIAFTDAHIEVNITYAEYFEMSVRLAEAMKRYGLNTNHRIVVCSENSLQFFMPVLGALFIGVAVAPANDIYNERELLNSMNISQPTVVFVSKKGLQKILNVQKKLPIIQKIIIMDSKTDYQGFQSMYTFVTSHLPPGFNEYDFVPESFDRDKTIALIMNSSGSTGLPKGVALPHRTACVRFSHARDPIFGNQIIPDTAILSVVPFHHGFGMFTTLGYLICGFRVVLMYRFEEELFLRSLQDYKIQSALLVPTLFSFFAKSTLIDKYDLSNLHEIASGGAPLSKEVGEAVAKRFHLPGIRQGYGLTETTSAILITPEGDDKPGAVGKVVPFFEAKVVDLDTGKTLGVNQRGELCVRGPMIMSGYVNNPEATNALIDKDGCGRGGSGGGGSGGGGSVDGGSGGQLDIMSQSNRELVVDFLSYKLSQKGYSWSQFSDVEENRTEAPEGTESEMETPSAINGNPSWHLADSPAVNGATGHSSSLDAREVIPMAAVKQALREAGDEFELRYRRAFSDLTSQL
notes: Expressed by transient transfection in HEK293T cells; also called N-Bcl-xL (aa 1-112)
B1: the binding result in test [6] was “binds”.

(Values after patent publication US20250383339A1, “DESIGN AND APPLICATION OF NOVEL LIGAND-INDUCED SPLIT-PROTEIN SYSTEMS” (ARIZONA BOARD OF REGENTS ON BEHALF OF THE UNIVERSITY OF …, priority 2022, published 2025).)
